In publication PMC12371487, “Phenylalkyl Acetophenones and Anacardic Acids from Knema oblongifolia with Synthetic Analogues as Anti-infectives and Antibacterial Agents” (ACS Bio & Med Chem Au, 2025) one finds MIC data, which are given here for one compound.

Converted amounts (≈) assume the structure as drawn.

The subject of this experiment is Staphylococcus aureus (Sa) Newman strain. The experiment in a line: MIC determination in Mueller-Hinton broth (CLSI) on Sa. Type of experiment: cell-based. As to conditions: Staphylococcus aureus, NEWMAN, read-out: MIC on Sa. As for the experimental part: MICs were determined in Mueller–Hinton (MH) broth according to CLSI guidelines and were repeated at least on three different occasions.
The Newman strain ofS. aureus and the UCBPP-PA14 strain ofP. aeruginosa were used in this study.

As usually defined, the MIC is the lowest concentration found to suppress growth. `CN[C@H](CC(C)C)C(=O)N[C@H]1C(=O)N[C@@H](CC(N)=O)C(=O)N[C@H]2C(=O)N[C@H]3C(=O)N[C@H](C(=O)N[C@H](C(=O)O)c4cc(O)cc(O)c4-c4cc3ccc4O)[C@H](O)c3ccc(c(Cl)c3)Oc3cc2cc(c3O[C@@H]2O[C@H](CO)[C@@H](O)[C@H](O)[C@H]2O[C@H]2C[C@](C)(N)[C@H](O)[C@H](C)O2)Oc2ccc(cc2Cl)[C@H]1O` [vancomycin, reference compound]: the minimum inhibitory concentration (MIC) turned out to be 1 µg/mL (≈ 0.69 µM).
